Assay: xn = mol fraction of the nth substance listed
Details: 101 kPa, Liquid; for speed of sound: Linear variable-path acoustic interferometer; for mass density: Vibrating tube method; for viscosity: dual vibrating plate viscometer, AandD Co. Ltd Model SV-10

CC[NH2+]CC.O=S(=O)([O-])O [diethylammonium hydrogen sulfate] + CN1CCCC1=O
Details | mass density, 298.15 K [kg/m3] | mass density, 303.15 K [kg/m3] | speed of sound, 298.15 K [m/s] | speed of sound, 303.15 K [m/s] | viscosity, 298.15 K [mPa·s] | viscosity, 303.15 K [mPa·s]
x1 = 0.016 | 1050.6 | 1037.47 | 1559 | 1551 | 2.45 | –
x1 = 0.0347 | 1067.85 | 1054.26 | 1555 | 1547 | 3.33 | 0.95
x1 = 0.092 | 1113.77 | 1095.4 | 1539 | 1536 | 9.94 | 7.28
x1 = 0.1316 | 1140.71 | 1122.07 | 1534 | 1529 | 15.78 | 12.27
x1 = 0.1916 | 1176.12 | 1155.56 | 1529 | 1523 | 27.2 | 21.6
x1 = 0.2992 | 1222.46 | 1196 | 1518 | 1515 | 49.04 | 37.85
x1 = 0.3455 | 1237.11 | 1207.13 | 1513 | 1510 | 59.35 | 45.88
x1 = 0.4175 | 1253.31 | 1219.69 | 1508 | 1505 | 73.04 | 56.62
x1 = 0.5442 | 1269.42 | 1228.51 | 1495 | 1491 | 92.75 | 72.49
x1 = 0.6829 | 1275.63 | 1229.8 | 1481 | 1474 | 101.4 | 79.75
x1 = 0.8359 | 1277.72 | 1232.02 | 1458 | 1446 | 87.14 | 69.13
x1 = 0.9342 | 1282.39 | 1235.49 | 1440 | 1423 | 58.7 | 48.37
x1 = 0.9684 | 1281.99 | 1237.36 | 1434 | 1415 | 46.45 | 35.95
x1 = 1 | 1283.95 | 1239.74 | 1432 | 1408 | 34.1 | –

Reference: the NIST ThermoML archive (doi:10.1016/j.jct.2012.03.034)
